Key:
[1] = target: T1, stearoyl-CoA desaturase (SCD1) (Mus musculus, UniProt P13516); assay: Stearoyl-CoA desaturase inhibition, mouse liver microsomes (release of 3H2O from [9,10-3H]stearoyl-CoA); assay type: biochemical; conditions: 15 min incubation, 25° C., read-out: Microsomal IC50
T1 construct: Male ICR outbread mice, on a high-carbohydrate, low fat diet; from tissue; host or cells: liver microsomes of male ICR mice on a high-carbohydrate, low fat diet
T1 sequence (P13516 1-355): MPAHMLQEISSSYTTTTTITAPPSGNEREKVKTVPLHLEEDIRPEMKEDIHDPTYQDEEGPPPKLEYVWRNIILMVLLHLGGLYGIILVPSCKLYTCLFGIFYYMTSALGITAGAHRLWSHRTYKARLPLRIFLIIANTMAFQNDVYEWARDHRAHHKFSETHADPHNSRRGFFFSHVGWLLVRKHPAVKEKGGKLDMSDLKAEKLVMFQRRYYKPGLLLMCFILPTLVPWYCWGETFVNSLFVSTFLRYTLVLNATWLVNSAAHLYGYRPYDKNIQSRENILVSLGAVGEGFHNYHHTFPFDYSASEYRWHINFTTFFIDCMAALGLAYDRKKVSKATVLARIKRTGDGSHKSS
Source text: The identification of compounds of the invention as SCD inhibitors was readily accomplished using the SCD enzyme and microsomal assay procedure described in Shanklin J. and Summerville C., Proc. Natl. Acad. Sci. USA (1991), Vol. 88, pp. 2510-2514.
Measuring Stearoyl-CoA Desaturase Inhibition Activity of a Test Compound Using Mouse Liver Microsomes
The identification of compounds of the invention as SCD inhibitors was readily accomplished using the SCD microsomal assay procedure described in Shanklin J. and Summerville C., Proc. Natl. Acad. Sci. USA (1991), Vol. 88, pp. 2510-2514.
Male ICR outbread mice, on a high-carbohydrate, low fat diet, under light halothane (15% in mineral oil) anesthesia are sacrificed by exsanguination during periods of high enzyme activity. Livers are immediately rinsed with cold 0.9% NaCl solution, weighed and minced with scissors. All procedures are performed at 4° C. unless specified otherwise. Livers are homogenized in a solution (1/3 w/v) containing 0.25 M sucrose, 62 mM potassium phosphate buffer (pH 7.0), 0.15 M KCl, 15 mM N-acetyleysteine, 5 mM MgCl2, and 0.1 mM EDTA using 4 strokes of a Potter-Elvehjem tissue homogenizer. The homogenate is centrifuged at 10,400×g for 20 min to eliminate mitochondria and cellular debris. The supernatant is filtered through a 3-layer cheesecloth and centrifuged at 105,000×g for 60 min. The microsomal pellet is gently resuspended in the same homogenization solution with a small glass/teflon homogenizer and stored at −70° C. The absence of mitochondrial contamination is enzymatically assessed. The protein concentration is measured using bovine serum albumin as the standard.
Desaturase activity is measured as the release of ^3H2O from [9,10-^3H]stearoyl-CoA. Reactions per assay point conditions are as follows: 2 μL 1.5 mM stearoyl-CoA, 0.25 μL 1 mCi/mL ^3H stearoyl CoA, 10 μL 20 mM NADH, 36.75 μL 0.1 M PK buffer (K2HPO4/NaH2PO4, pH 7.2). The test compound or control solution is added in a 1 μL volume. Reactions are started by adding 50 μL of microsomes (1.25 mg/mL). The plates are mixed and after 15 min incubation on a heating block (25° C.), the reactions are stopped by the addition of 10 μL 60% PCA. An aliquot of 100 μL is then transferred to a filter plate pretreated with charcoal and the plate centrifuged at 4000 rpm for 1 minute. The flow through containing the ^3H2O released by the SCD1 desaturation reaction is added to scintillation fluid and the radioactivity measured in a Packard TopCount. The data is analysed to identify the IC50 for test compounds and reference compounds.
The activity was defined in terms of % SCD enzyme activity remaining at the desired concentration of the test compound or as the IC50 concentration. The IC50 (affinity) of the example compounds toward the stearoyl-CoA desaturase is comprised between around […] and 0.0001 μM or between around 5 μM and 0.0001 μM or between around 1 μM and 0.0001 μM.

SMILES	IC50 [1]	melting point
Cc1nc(-n2cnn(C(C)c3ccccc3)c2=O)sc1C(=O)NCc1cccnc1 (centres unmarked) [Example 20-5, 4-methyl-2-(5-oxo-1-(1-phenylethyl)-1H-1,2,4-triazol-4(5H)-yl)-N-(pyridin-3-ylmethyl)thiazole-5-carboxamide]	98 nM	–
Cc1nc(N2CCN(Cc3cccc(F)c3)C2=O)sc1C(N)=O [Example 20-24, 2-(3-(3-fluorobenzyl)-2-oxoimidazolidin-1-yl)-4-methylthiazole-5-carboxamide]	40 nM	–
Cc1nc(N2CCN(Cc3cc(Cl)cc(Cl)c3)C2=O)sc1C(=O)NCc1ccccn1 [Example 20-90, 2-(3-(3,5-dichlorobenzyl)-2-oxoimidazolidin-1-yl)-4-methyl-N-(pyridin-2-ylmethyl)thiazole-5-carboxamide]	8 nM	–
Cc1nc(-c2sc(N3CCN(Cc4ccc(OC(F)(F)F)cc4)C3=O)nc2C)n[nH]1 [Example 20-57, 1-(4-methyl-5-(5-methyl-1H-1,2,4-triazol-3-yl)thiazol-2-yl)-3-(4-(trifluoromethoxy)-benzyl)imidazolidin-2-one]	119 nM	–
Cc1nc(N2CCN(CC(C)C)C2=O)sc1C(=O)NCc1cccnc1 [Example 12.18, 2-(3-isobutyl-2-oxoimidazolidin-1-yl)-4-methyl-N-(pyridin-3-ylmethyl)thiazole-5-carboxamide]	156 nM	–
Cc1nc(-n2cnn(C(C)c3ccccc3)c2=O)sc1C(=O)NCc1csc(C(F)(F)F)n1 (centres unmarked) [Example 20-17, 4-methyl-2-(5-oxo-1-(1-phenylethyl)-1H-1,2,4-triazol-4(5H)-yl)-N-((2-(trifluoromethyl)-thiazol-4-yl)-methyl)thiazole-5-carboxamide]	208 nM	–
Cc1nc(-n2cnn(Cc3ccc(OC(F)(F)F)cc3)c2=O)sc1C(=O)NCc1ccccn1 [Example 20-54, 4-methyl-2-(5-oxo-1-(4-(trifluoromethoxy)-benzyl)-1H-1,2,4-triazol-4(5H)-yl)-N-(pyridin-2-ylmethyl)-thiazole-5-carboxamide]	20 nM	–
Cc1nc(-n2cnn(C(C)c3ccccc3)c2=O)sc1C(N)=O (centres unmarked) [Example 20-6, 4-methyl-2-(5-oxo-1-(1-phenylethyl)-1H-1,2,4-triazol-4(5H)-yl)thiazole-5-carboxamide]	80 nM	–
Cc1nc(-n2cnn(C(C)c3ccccc3)c2=O)sc1C(=O)NCc1cncs1 (centres unmarked) [Example 20-10, 4-methyl-2-(5-oxo-1-(1-phenylethyl)-1H-1,2,4-triazol-4(5H)-yl)-N-(thiazol-5-ylmethyl)thiazole-5-carboxamide]	8 nM	–
Cc1nc(N2C[C@H](C)N(Cc3ccc(F)cc3)C2=O)sc1C(=O)NCc1cccnc1 [Example 2, (S)-2-(3-(4-Fluorobenzyl)-4-methyl-2-oxoimidazolidin-1-yl)-4-methyl-N-(pyridin-3-ylmethyl)thiazole-5-carboxamide]	–	67 to 70 °C
Cc1nc(N2CCN(CC3CC3(F)F)C2=O)sc1C(=O)NCc1cncs1 (centres unmarked) [Example 16.2, 2-(3-((2,2-difluorocyclopropyl)methyl)-2-oxoimidazolidin-1-yl)-4-methyl-N-(thiazol-5-ylmethyl)thiazole-5-carboxamide]	–	182 to 184 °C
Cc1nnc(-c2sc(N3CCN(Cc4ccc(F)cc4)C3=O)nc2C)[nH]1 [Example 3.1, 1-(4-fluorobenzyl)-3-[4-methyl-5-(5-methyl-4H-1,2,4-triazol-3-yl)thiazol-2-yl]imidazolidin-2-one]	–	248 to 249 °C
Cc1nnc(-c2sc(N3CCN(Cc4ccc(C(F)(F)F)cc4)C3=O)nc2C)[nH]1 [Example 3, 1-(4-methyl-5-(5-methyl-4H-1,2,4-triazol-3-yl)thiazol-2-yl)-3-(4-(trifluoromethyl)benzyl)imidazolidin-2-one]	–	273 to 274 °C
Cc1nc(N2C[C@@H](C)N(Cc3ccc(F)cc3)C2=O)sc1C(=O)NCc1ccccn1 [Example 2.5, (R)-2-(3-(4-fluorobenzyl)-4-methyl-2-oxoimidazolidin-1-yl)-4-methyl-N-(pyridin-2-ylmethyl)thiazole-5-carboxamide]	–	118 to 119 °C
Cc1nc(N2CCN(Cc3ccc(C(F)(F)F)nc3)C2=O)sc1C(N)=O [Example 1.10, 4-methyl-2-(2-oxo-3-((6-(trifluoromethyl)pyridine-3-yl)methyl)imidazolidin-1-yl)thiazole-5-carboxamide]	–	225 to 228 °C
Cc1nc(N2CCN(CC3CC3(F)F)C2=O)sc1-c1cc[nH]n1 (centres unmarked) [Example 17, 1-((2,2-difluorocyclopropyl)methyl)-3-(4-methyl-5-(1H-pyrazol-3-yl)thiazol-2-yl)imidazolidin-2-one]	–	227 to 230 °C
Cc1nc(N2CCN(CC(C)C)C2=O)sc1C(=O)NCc1ccn(C)n1 [Example 12.22, 2-(3-isobutyl-2-oxoimidazolidin-1-yl)-4-methyl-N-((1-methyl-1H-pyrazol-3-yl)methyl)thiazole-5-carboxamide]	–	158 to 161 °C
Cc1nc(N2CCN(CCC3CC3)C2=O)sc1-c1cc[nH]n1 [Example 8, 1-(2-cyclopropylethyl)-3-(4-methyl-5-(1H-pyrazol-3-yl)thiazol-2-yl)imidazolidin-2-one]	–	147 to 149 °C
Cc1nc(N2C(=O)N(Cc3ccc(F)cc3)C[C@@H]2C)sc1C(=O)NCc1ccccn1 [Example 2.15, (S)-2-(3-(4-fluorobenzyl)-5-methyl-2-oxoimidazolidin-1-yl)-4-methyl-N-(pyridin-2-ylmethyl)thiazole-5-carboxamide]	–	112 to 113 °C
Cc1nc(-n2cnn(CC3CC3)c2=O)sc1C(=O)NCc1ccccn1 [Example 14.3, 2-(1-(Cyclopropylmethyl)-5-oxo-1H-1,2,4-triazol-4(5H)-yl)-4-methyl-N-(pyridin-2-ylmethyl)thiazole-5-carboxamide]	–	160 to 161 °C
Cc1nc(-n2cnn(CC3CC3)c2=O)sc1C(N)=O [Example 1.1, 2-[1-(cyclopropylmethyl)-5-oxo-1H-1,2,4-triazol-4(5H)-yl]-4-methylthiazole-5-carboxamide]	–	180 to 181 °C
Cc1nc(N2C[C@@H](C)N(Cc3ccc(C(F)(F)F)cc3)C2=O)sc1C(=O)NCc1ccccn1 [Example 2.20, (R)-4-methyl-2-(4-methyl-2-oxo-3-(4-(trifluoromethyl)benzyl)imidazolidin-1-yl)-N-(pyridin-2-ylmethyl)thiazole-5-carboxamide]	–	136 to 137 °C
Cc1nc(N2C[C@@H](C)N(Cc3ccc(F)cc3)C2=O)sc1C(=O)NCc1cc(F)cc(F)c1 [Example 2.10, (R)-N-(3,5-difluorobenzyl)-2-(3-(4-fluorobenzyl)-4-methyl-2-oxoimidazolidin-1-yl)-4-methylthiazole-5-carboxamide]	–	159 to 160 °C
Cc1nc(-n2cnn(CC3CC3(F)F)c2=O)sc1C(=O)NCc1cccnc1 (centres unmarked) [Example 15, 2-(1-((2,2-difluorocyclopropyl)methyl)-5-oxo-1H-1,2,4-triazol-4(5H)-yl)-4-methyl-N-(pyridin-3-ylmethyl)thiazole-5-carboxamide]	–	160 to 161 °C
Cc1nc(N2CCN(Cc3ccc(F)cc3)C2=O)sc1-c1nn[nH]n1 [Example 18.1, 1-(4-fluorobenzyl)-3-(4-methyl-5-(2H-tetrazol-5-yl)thiazol-2-yl)imidazolidin-2-one]	–	145 to 149 °C
Cc1cc(-c2sc(N3CCN(Cc4ccc(F)cc4)C3=O)nc2C)n[nH]1 [Example 6.2, 1-(4-fluorobenzyl)-3-(4-methyl-5-(5-methyl-1H-pyrazol-3-yl)thiazol-2-yl)imidazolidin-2-one]	–	218 to 221 °C
